Literature values, collected in patent publication US11946086B2, “Gene involved in synthesis of cyclic peptide compound, method for producing cyclic peptide compound using the same, and transformant comprising the same” (NATIONAL INSTITUTE OF ADVANCED INDUSTRIAL SCIENCE AND …, priority 2017, dated 2024).
Non-standard residues stand in square brackets, D forms with d. Residues, ends and D or L forms follow the SMILES beside them. NMeI = CC[CH](C)[CH](NC)C(=O)O; NMeD = CN[CH](CC(=O)O)C(=O)O; NMeV = CN[CH](C(=O)O)C(C)C; Pip = O=C(O)[CH]1CCCCN1; Lac = C[CH](O)C(=O)O

Tested on: plant pathogenic bacteria, and, in particular, fungi
Settings: against plant pathogenic bacteria

For CCC(C)C1C(=O)NCC(=O)N(C)C(C(C)C)C(=O)NC(Cc2ccc(OC)cc2)C(=O)OC(C)C(=O)N2CCCCC2C(=O)N(C)C(C(C)C)C(=O)NC(C(C)C)C(=O)N(C)C(CC(=O)O)C(=O)N(C)C(C(C)C)C(=O)N1C (stereo not shown) [KK-1, Tyrosine, N-[N-[N-[N-[N-[N-[N-[N-[[1-(2-hydroxy-1-oxopropyl)-2-piperidinyl]carbonyl]-N-methylvalyl]valyl]-N-methyl-a-aspartyl]-N-methylvalyl]-N-methylisoleucyl]glycyl]-N-methylvalyl]-O-methyl-, d2-lactone (9CI)] (cyclo(G[NMeV]Y(Me)[Lac][Pip][NMeV]V[NMeD][NMeV][NMeI]); configuration not given here), the bactericidal activity is given as “potent bactericidal activity”.
